{"source": "patent US20080146669A1", "about": "“Novel Chloride Channel Pore Openers” (THE UAB RESEARCH FOUNDATION, priority 2005, published 2008)", "key": {"wild-type CFTR [1]": {"target": "T1, wild-type CFTR (Homo sapiens, UniProt P13569)", "T1 sequence (P13569 whole entry)": "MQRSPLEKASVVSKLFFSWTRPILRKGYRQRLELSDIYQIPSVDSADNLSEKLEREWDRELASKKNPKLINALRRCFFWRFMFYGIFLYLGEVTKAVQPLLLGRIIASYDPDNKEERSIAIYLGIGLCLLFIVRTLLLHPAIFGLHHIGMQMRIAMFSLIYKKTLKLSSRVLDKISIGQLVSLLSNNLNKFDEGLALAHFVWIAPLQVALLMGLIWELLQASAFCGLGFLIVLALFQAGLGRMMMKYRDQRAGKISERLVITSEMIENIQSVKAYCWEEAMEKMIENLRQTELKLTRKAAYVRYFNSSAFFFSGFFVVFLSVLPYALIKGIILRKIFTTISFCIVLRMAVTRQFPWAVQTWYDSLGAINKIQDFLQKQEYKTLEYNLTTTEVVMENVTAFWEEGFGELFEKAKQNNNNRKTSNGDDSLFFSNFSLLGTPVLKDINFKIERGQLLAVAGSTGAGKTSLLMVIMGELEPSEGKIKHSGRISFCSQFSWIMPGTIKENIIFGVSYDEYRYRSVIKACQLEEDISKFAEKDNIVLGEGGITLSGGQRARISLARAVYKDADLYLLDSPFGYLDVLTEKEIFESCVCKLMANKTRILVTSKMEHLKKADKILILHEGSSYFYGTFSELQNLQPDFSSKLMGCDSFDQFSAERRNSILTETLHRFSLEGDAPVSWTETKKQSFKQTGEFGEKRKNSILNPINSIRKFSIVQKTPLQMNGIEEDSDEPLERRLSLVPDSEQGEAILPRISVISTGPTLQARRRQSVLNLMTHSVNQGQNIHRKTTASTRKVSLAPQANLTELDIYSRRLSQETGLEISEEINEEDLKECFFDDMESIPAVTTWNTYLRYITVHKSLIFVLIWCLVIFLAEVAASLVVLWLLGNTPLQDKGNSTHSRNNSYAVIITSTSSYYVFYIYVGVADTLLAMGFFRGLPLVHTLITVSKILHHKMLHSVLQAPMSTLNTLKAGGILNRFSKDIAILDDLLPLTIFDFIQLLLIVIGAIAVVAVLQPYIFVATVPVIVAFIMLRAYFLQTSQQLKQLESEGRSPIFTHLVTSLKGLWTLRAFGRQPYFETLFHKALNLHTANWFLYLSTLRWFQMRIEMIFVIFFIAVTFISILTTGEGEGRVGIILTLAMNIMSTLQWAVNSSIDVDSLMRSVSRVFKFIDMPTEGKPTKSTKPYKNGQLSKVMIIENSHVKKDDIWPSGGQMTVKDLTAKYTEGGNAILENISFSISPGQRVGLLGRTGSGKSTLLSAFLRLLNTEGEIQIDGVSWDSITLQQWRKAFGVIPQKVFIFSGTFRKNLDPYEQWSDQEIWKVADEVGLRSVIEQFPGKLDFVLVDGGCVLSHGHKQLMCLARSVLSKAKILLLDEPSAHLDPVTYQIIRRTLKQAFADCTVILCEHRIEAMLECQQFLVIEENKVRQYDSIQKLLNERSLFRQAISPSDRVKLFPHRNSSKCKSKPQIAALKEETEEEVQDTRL", "assay": "Macroscopic currents in excised patches from wild-type CFTR-transfected HEK-293T cells", "type": "biochemical", "design": "expressed in transfected cells; host or cells: HEK-293T, transient (Lipofectamine)", "details": "10 μM; 1.5 mM Mg-ATP and 110 U/ml PKA", "protocol": "(§1) Cell culture DNA constructs and transfections. Baby hamster kidney (BHK) cells stably expressing wild type human CFTR (BHK-CFTR) were provided by J. Hanrahan (McGill University). BHK-CFTR cells were cultured in Dulbecco's modified Eagle's medium (DMEM (Mediatech)) supplemented with 5% fetal bovine serum (FBS) and 1 mM penicillin-streptomycin. The growth media for the BHK-CFTR cells also contained 0.5 mM methotrexate to maintain selection for CFTR-expressing cells (22). HEK-293T cells were transiently transfected with wild-type or mutant CFTR cDNA using the Lipofectamine transfection kit following manufacturer's recommendations (Invitrogen, Corp). HEK-293T cells were cultured in DMEM. All cells were grown on plastic coverslips for patch clamp recording and were used 2-3 days post-seeding. Electrophysiology and data analysis. Macroscopic and multi-channel currents were recorded in the excised, inside-out configuration. Patch pipettes were pulled from Corning 8161 glass to tip resistances of […] (macroscopic recordings) or 8-10 mOhm (micropatch studies). CFTR channels were activated following patch excision by exposure of the cytoplasmic face of the patch to catalytic subunit of protein kinase A (PKA; 110 U/ml; Promega) and Mg-ATP (1.5 mM). CFTR currents were recorded in symmetrical solution containing (in mM): 140 N-methyl-D-glucaniine-Cl, 3 MgCl2, 1 EGTA and 10 TES. […]"}, "ΔF508-CFTR": {"target": "T2, ΔF508-CFTR (Homo sapiens, UniProt P13569, DEL508-508)", "T2 construct": "expressed in transfected cells; host or cells: HEK-293T, transient; grown at 28° C. for 24 hrs", "T2 sequence (P13569 with tags, fused parts or gaps DEL508-508)": "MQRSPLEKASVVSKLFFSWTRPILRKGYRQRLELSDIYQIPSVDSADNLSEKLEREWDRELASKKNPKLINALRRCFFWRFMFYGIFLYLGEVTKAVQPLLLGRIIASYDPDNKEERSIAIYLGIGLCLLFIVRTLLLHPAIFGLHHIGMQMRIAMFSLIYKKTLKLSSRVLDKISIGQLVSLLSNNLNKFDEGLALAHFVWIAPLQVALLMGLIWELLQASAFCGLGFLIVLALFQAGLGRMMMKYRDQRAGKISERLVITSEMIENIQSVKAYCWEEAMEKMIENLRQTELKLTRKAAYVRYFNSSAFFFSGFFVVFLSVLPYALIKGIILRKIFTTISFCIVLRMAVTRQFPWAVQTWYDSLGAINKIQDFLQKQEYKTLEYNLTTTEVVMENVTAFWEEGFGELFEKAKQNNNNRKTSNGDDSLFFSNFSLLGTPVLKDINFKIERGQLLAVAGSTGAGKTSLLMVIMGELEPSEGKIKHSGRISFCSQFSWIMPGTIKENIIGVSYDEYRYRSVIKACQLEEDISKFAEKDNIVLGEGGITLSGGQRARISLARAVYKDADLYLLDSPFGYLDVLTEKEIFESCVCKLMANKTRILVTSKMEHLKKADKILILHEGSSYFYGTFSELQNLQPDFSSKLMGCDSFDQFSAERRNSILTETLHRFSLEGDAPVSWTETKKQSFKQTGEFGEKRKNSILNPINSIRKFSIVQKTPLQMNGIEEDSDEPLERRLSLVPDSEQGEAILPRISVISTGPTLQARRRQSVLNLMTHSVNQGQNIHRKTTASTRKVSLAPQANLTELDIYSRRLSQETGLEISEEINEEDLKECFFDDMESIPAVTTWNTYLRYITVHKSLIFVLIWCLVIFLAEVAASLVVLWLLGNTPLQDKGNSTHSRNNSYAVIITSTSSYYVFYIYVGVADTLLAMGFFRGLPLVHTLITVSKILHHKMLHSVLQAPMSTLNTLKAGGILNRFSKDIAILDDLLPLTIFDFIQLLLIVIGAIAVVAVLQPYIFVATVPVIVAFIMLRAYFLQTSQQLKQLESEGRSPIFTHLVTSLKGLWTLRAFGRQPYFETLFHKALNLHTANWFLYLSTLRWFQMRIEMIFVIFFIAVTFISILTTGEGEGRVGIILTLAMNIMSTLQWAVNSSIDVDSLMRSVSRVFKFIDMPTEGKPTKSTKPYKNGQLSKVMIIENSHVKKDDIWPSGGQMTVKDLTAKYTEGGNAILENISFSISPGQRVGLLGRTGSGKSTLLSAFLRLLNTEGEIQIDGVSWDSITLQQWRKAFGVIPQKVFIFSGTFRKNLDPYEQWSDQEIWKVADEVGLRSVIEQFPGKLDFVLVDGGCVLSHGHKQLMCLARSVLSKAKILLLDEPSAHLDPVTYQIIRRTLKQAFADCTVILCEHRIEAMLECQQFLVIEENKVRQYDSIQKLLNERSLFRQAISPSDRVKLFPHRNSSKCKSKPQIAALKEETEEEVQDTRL", "assay": "Ussing chamber transepithelial chloride currents, temperature-corrected ΔF508-CFTR CFBE41o- monolayers", "type": "cell-based", "protocol": "(§2) Cell culture DNA constructs and transfections. Baby hamster kidney (BHK) cells stably expressing wild type human CFTR (BHK-CFTR) were provided by J. Hanrahan (McGill University). BHK-CFTR cells were cultured in Dulbecco's modified Eagle's medium (DMEM (Mediatech)) supplemented with 5% fetal bovine serum (FBS) and 1 mM penicillin-streptomycin. The growth media for the BHK-CFTR cells also contained 0.5 mM methotrexate to maintain selection for CFTR-expressing cells (22). HEK-293T cells were transiently transfected with wild-type or mutant CFTR cDNA using the Lipofectamine transfection kit following manufacturer's recommendations (Invitrogen, Corp). HEK-293T cells were cultured in DMEM. All cells were grown on plastic coverslips for patch clamp recording and were used 2-3 days post-seeding. Electrophysiology and data analysis. Macroscopic and multi-channel currents were recorded in the excised, inside-out configuration. Patch pipettes were pulled from Corning 8161 glass to tip resistances of […] (macroscopic recordings) or 8-10 mOhm (micropatch studies). CFTR channels were activated following patch excision by exposure of the cytoplasmic face of the patch to catalytic subunit of protein kinase A (PKA; 110 U/ml; Promega) and Mg-ATP (1.5 mM). CFTR currents were recorded in symmetrical solution containing (in mM): 140 N-methyl-D-glucaniine-Cl, 3 MgCl2, 1 EGTA and 10 TES. The pH was adjusted to 7.3. Macroscopic currents were evoked using a ramp protocol from +80 to −80 mV with a 10 sec time period. Patches were held at −80 mV or +80 mV for micropatch (multichannel) recordings. All patch clamp experiments were performed at 21-23° C. Signals from macroscopic and single channel recording were filtered at 20 and 200 Hz, respectively. Data acquisition and analysis were performed using pCLAMP8 and pCLAMP9 software (Axon Instruments). Curve fitting for kinetic analysis was performed using Microcal Origin software. Averaged data are presented as mean +/−SEM. Statistical comparisons were made by performing unpaired t-tests unless otherwise indicated. Ussing Chamber Experiments-CFBE41o epithelial cells stably transfected with ΔF508-CFTR or transiently transfected with wild-type CFTR were cultured as electrically resistive monolayers and assayed in Ussing chambers as described (16). ΔF508-CFTR-expressing monolayers were grown at 27° C. for 2-3 days to enhance the surface expression of this temperature-sensitive mutant. A serosal-to-mucosal Cl^− gradient (120 to 1.2 mM) was imposed, followed by amiloride addition (100 μM) to block Na^+ currents. Compounds were added to both chambers at the indicated concentrations. A 3-mV voltage pulse was imposed every 100 s to monitor transepithelial resistance."}, "G551D-CFTR": {"target": "T3, G551D-CFTR (Homo sapiens, UniProt P13569, G551D)", "T3 construct": "expressed in transfected cells; host or cells: HEK-293T, transient", "T3 sequence (P13569 whole entry G551D)": "as the sequence (P13569 whole entry) above, with G551D counted along it", "assay": "Macroscopic currents in excised patches from HEK-293T cells expressing G551D-CFTR", "type": "biochemical", "details": "10 μM", "protocol": "as §2, with “Ussing Chamber Experiments-CFBE41o epithelial cells stably transfected with ΔF508-CFTR or transiently transfected with wild-type CFTR were cultured as electrically resistive monolayers and assayed in Ussing chambers as described (16). ΔF508-CFTR-expressing monolayers were grown at 27° C. for 2-3 days to enhance the surface expression of this temperature-sensitive mutant. A serosal-to-mucosal Cl^− gradient (120 to 1.2 mM) was imposed, followed by amiloride addition (100 μM) to block Na^+ currents. Compounds were added to both chambers at the indicated concentrations. A 3-mV voltage pulse was imposed every 100 s to monitor transepithelial resistance.” left out"}, "wild-type CFTR [2]": {"target": "T1, wild-type CFTR", "assay": "Ussing chamber transepithelial chloride currents, wild type CFTR-expressing CFBE41o- monolayers", "type": "cell-based", "design": "expressed in transfected cells; host or cells: HEK-293T, transient (Lipofectamine)", "details": "120 nM to 12 μM", "protocol": "as §1"}, "wild-type CFTR [3]": {"target": "T1, wild-type CFTR", "assay": "Macroscopic currents in excised inside-out patches from BHK-CFTR cells", "type": "biochemical", "design": "expressed in transfected cells; provided by J. Hanrahan (McGill University)", "details": "for EC50: moderately phosphorylated wild-type channels, normalized to peak current at 10 μM, read-out: EC50 of CFTR current stimulation (titration)", "protocol": "as §2, with “CFTR channels were activated following patch excision by exposure of the cytoplasmic face of the patch to catalytic subunit of protein kinase A (PKA; 110 U/ml; Promega) and Mg-ATP (1.5 mM).” left out"}}, "note": "Where two headings read alike, the source gives them in different places.", "data": [{"smiles": "NC(=O)c1cc([N+](=O)[O-])ccc1NCCCc1ccccc1", "note": "[NPPB-Am]", "values": [{"measurement": "stimulation of the activity of the wild-type channel", "setting": "wild-type CFTR [1]", "value": "1.5-2 fold"}, {"measurement": "effect on transepithelial currents without cAMP agonist", "setting": "ΔF508-CFTR; 120 nM to 12 μM", "value": "stimulated the transepithelial currents"}, {"measurement": "potentiation of the forskolin effect on ΔF508-CFTR transepithelial currents", "setting": "ΔF508-CFTR; 1 μM compound with 1 μM forskolin, N=8-12", "value": "markedly potentiated the effect of forskolin"}, {"measurement": "stimulated transepithelial current with H89", "setting": "ΔF508-CFTR; prior treatment with H89 100 μM, n=4, monolayer type (wild-type or ΔF508) not stated", "value": "5.5+/−1.3 μA/cm^2"}, {"measurement": "stimulated transepithelial current without H89", "setting": "ΔF508-CFTR; −H89, n=4, monolayer type (wild-type or ΔF508) not stated", "value": "23.3+/−2.0 μA/cm^2"}, {"measurement": "effect on G551D-CFTR activity", "setting": "G551D-CFTR", "value": "only modestly stimulated"}, {"measurement": "effect on transepithelial currents without cAMP agonist", "setting": "wild-type CFTR [2]", "value": "stimulated the transepithelial currents"}, {"measurement": "relative stimulation as a function of CFTR phosphorylation", "setting": "wild-type CFTR [3]", "value": "greater relative stimulatory effect on poorly phosphorylated CFTR channels"}, {"measurement": "time course and reversibility of the stimulation of CFTR current", "setting": "wild-type CFTR [3]", "value": "rapid, stable and quickly reversible upon wash out"}, {"measurement": "voltage dependence of the stimulation of CFTR current", "setting": "wild-type CFTR [3]", "value": "voltage-independent with no evidence for CFTR inhibition at any holding potential"}, {"measurement": "increase of the current", "setting": "wild-type CFTR [3]; 125 nM, mean titration data, n=8", "value": "approximately 20%"}, {"measurement": "increase of the current", "setting": "wild-type CFTR [3]; 250 nM, representative patch", "value": 25, "unit": "%"}, {"measurement": "effect on currents of poorly phosphorylated or thiolated CFTR channels", "setting": "wild-type CFTR [3]; 10 μM", "value": "effectively stimulated the currents"}, {"measurement": "effect on currents of moderately phosphorylated wild-type channels", "setting": "wild-type CFTR [3]; 10 μM, high PKA followed by PKI", "value": "stimulates currents in both directions"}, {"measurement": "effect on the Mg-ATP sensitivity of CFTR activity", "setting": "wild-type CFTR [3]; Mg-ATP titration with and without compound, data not shown", "value": "no obvious effect"}, {"measurement": "EC50", "setting": "wild-type CFTR [3]; listed as NPPB-AM", "value": 960, "unit": "nM"}, {"measurement": "EC50", "setting": "wild-type CFTR [3]", "value": 710, "unit": "nM"}, {"measurement": "lowest concentration with detectable increases in CFTR currents", "setting": "wild-type CFTR [3]; titration experiments", "value": 250, "unit": "nM"}]}]}
